Experimental data: patent publication US11331299B2, “Medicinal use of serrulatane diterpenes” (The University of Sydney, priority 2016, dated 2022)
Where two headings read alike, the source gives them in different places.

Tested on: 280 human cancer cell lines
Assay: OncoPanel cell proliferation assay (10-day)
Assay type: cell-based
Conditions: Homo sapiens; for EC50: read-out: Cell Count EC50; for GI50: read-out: Cell Count GI50; for IC50: read-out: Cell Count IC50
[1] = NCI-H292, NCI-H292, Lung - NSCLC
[2] = NCI-H295R, Endocrine - Adrenal gland
[3] = NCI-H441, NCIH441, Lung - NSCLC
[4] = NCI-H460, NCI-H460, Lung - NSCLC
[5] = NCI-H520, NCI-H520, Lung - NSCLC
[6] = NCI-H596, NCI-H596, Lung - NSCLC
[7] = NCI-H661, NCI-H661, Lung - NSCLC
[8] = NTERA-2-cl-D1, NTERA-2 cl.D1, Testis
[9] = OVCAR-3, OVCAR3, Female GU - Ovary
[10] = RPMI-7951, RPMI-7951, Skin (Melanoma)
[11] = SAOS-2, SaOS2, Soft Tissue - Osteosarcoma

CC(C)=CCC[C@@H]1C(O)Oc2c(C)cc(O)c3c2[C@H]1CC[C@H]3C (some centres unmarked) [Compound 2, 5,18-epoxyserrulat-14-en-8,18-diol] showed an EC50 [1] of 16.7 µM, a GI50 [1] of 16.6 µM and an IC50 [1] of 16.7 µM. For the same compound, the EC50 [2] was > 30 µM, the GI50 [2] was > 30 µM and the IC50 [2] was > 30 µM. For the same compound, the EC50 [3] was > 30 µM, the GI50 [3] was > 30 µM and the IC50 [3] was > 30 µM. For the same compound, the EC50 (NCI-H446, NCIH446, Lung - SCLC) was 9.75 µM, the GI50 (NCI-H446, NCIH446, Lung - SCLC) was 9.77 µM and the IC50 (NCI-H446, NCIH446, Lung - SCLC) was 9.85 µM. It also gave an EC50 [4] of 5.57 µM, a GI50 [4] of 5.91 µM and an IC50 [4] of 5.92 µM. For the same compound, the EC50 (NCI-H508, NCI-H508, Colon) was > 30 µM, the GI50 (NCI-H508, NCI-H508, Colon) was > 30 µM and the IC50 (NCI-H508, NCI-H508, Colon) was > 30 µM. It also gave an EC50 [5] of 9.03 µM, a GI50 [5] of 9.17 µM and an IC50 [5] of 9.2 µM. It also gave an EC50 [6] of 12 µM, a GI50 [6] of 14.4 µM and an IC50 [6] of 15.1 µM. For the same compound, the EC50 [7] was 9.51 µM, the GI50 [7] was 9.51 µM and the IC50 [7] was 9.51 µM. For the same compound, the EC50 (NCI-H747, NCI-H747, Colon) was 12.3 µM, the GI50 (NCI-H747, NCI-H747, Colon) was > 30 µM and the IC50 (NCI-H747, NCI-H747, Colon) was > 30 µM. The EC50 [8] was 12.5 µM, the GI50 [8] was 12.3 µM and the IC50 [8] was 12.5 µM. The EC50 (OCUG-1, OCUG-1, Liver) was > 30 µM, the GI50 (OCUG-1, OCUG-1, Liver) was 29.9 µM and the IC50 (OCUG-1, OCUG-1, Liver) was > 30 µM. For the same compound, the EC50 (OE19, OE19, Head and Neck) was > 30 µM, the GI50 (OE19, OE19, Head and Neck) was > 30 µM and the IC50 (OE19, OE19, Head and Neck) was > 30 µM. The EC50 (OE21, OE21, Head and Neck) was > 30 µM, the GI50 (OE21, OE21, Head and Neck) was > 30 µM and the IC50 (OE21, OE21, Head and Neck) was > 30 µM. It also gave an EC50 [9] of 14.4 µM, a GI50 [9] of 13.7 µM and an IC50 [9] of 14.4 µM. For the same compound, the EC50 (PA-1, Female GU - Ovary) was 11.6 µM, the GI50 (PA-1, Female GU - Ovary) was 16.2 µM and the IC50 (PA-1, Female GU - Ovary) was 16.3 µM. It also gave an EC50 (PANC-1, PANC-1, Pancreas) of 7.06 µM, a GI50 (PANC-1, PANC-1, Pancreas) of 7.01 µM and an IC50 (PANC-1, PANC-1, Pancreas) of 7.06 µM. For the same compound, the EC50 (PC-3, Prostate) was 12 µM, the GI50 (PC-3, Prostate) was 11.8 µM and the IC50 (PC-3, Prostate) was 12 µM. For the same compound, the EC50 (PFSK-1, PFSK-1, CNS - Glioma) was 14.7 µM, the GI50 (PFSK-1, PFSK-1, CNS - Glioma) was 14.6 µM and the IC50 (PFSK-1, PFSK-1, CNS - Glioma) was 14.7 µM. It also gave an EC50 (PSN1, PSN-1, Pancreas) of 12 µM, a GI50 (PSN1, PSN-1, Pancreas) of 12 µM and an IC50 (PSN1, PSN-1, Pancreas) of 12 µM. It also gave an EC50 (RD, Soft Tissue - Sarcoma) of 2.98 µM, a GI50 (RD, Soft Tissue - Sarcoma) of 2.96 µM and an IC50 (RD, Soft Tissue - Sarcoma) of 2.98 µM. The EC50 (RKO, Colon) was 7.22 µM, the GI50 (RKO, Colon) was 7.92 µM and the IC50 (RKO, Colon) was 7.92 µM. The EC50 (RKOE6, RKOE6, Colon) was 6.95 µM, the GI50 (RKOE6, RKOE6, Colon) was 6.93 µM and the IC50 (RKOE6, RKOE6, Colon) was 6.95 µM. It also gave an EC50 (RPMI-6666, RPMI 6666, Lymphoma) of 10.4 µM, a GI50 (RPMI-6666, RPMI 6666, Lymphoma) of 10.7 µM and an IC50 (RPMI-6666, RPMI 6666, Lymphoma) of 10.7 µM. It also gave an EC50 [10] of 5.77 µM, a GI50 [10] of 6.13 µM and an IC50 [10] of 6.15 µM. For the same compound, the EC50 (RPMI-8226, RPMI 8226, Myeloma) was 2.02 µM, the GI50 (RPMI-8226, RPMI 8226, Myeloma) was 1.95 µM and the IC50 (RPMI-8226, RPMI 8226, Myeloma) was 2.02 µM. The EC50 (RS4-11, RS4, 11, Leukemia) was 6.43 µM, the GI50 (RS4-11, RS4, 11, Leukemia) was 6.3 µM and the IC50 (RS4-11, RS4, 11, Leukemia) was 6.43 µM. For the same compound, the EC50 (Raji, Lymphoma) was 8.04 µM, the GI50 (Raji, Lymphoma) was 8.04 µM and the IC50 (Raji, Lymphoma) was 8.04 µM. For the same compound, the EC50 (Ramos, Ramos (RA 1), Lymphoma) was 4.39 µM, the GI50 (Ramos, Ramos (RA 1), Lymphoma) was 4.39 µM and the IC50 (Ramos, Ramos (RA 1), Lymphoma) was 4.39 µM. It also gave an EC50 [11] of 15.7 µM, a GI50 [11] of 15.1 µM and an IC50 [11] of 15.7 µM. For the same compound, the EC50 (SCC-4, SCC-4, Head and Neck) was > 30 µM, the GI50 (SCC-4, SCC-4, Head and Neck) was > 30 µM and the IC50 (SCC-4, SCC-4, Head and Neck) was > 30 µM. It also gave an EC50 (SCC-9, SCC-9, Head and Neck) of 26.7 µM, a GI50 (SCC-9, SCC-9, Head and Neck) of 27.3 µM and an IC50 (SCC-9, SCC-9, Head and Neck) of 27.3 µM. For the same compound, the EC50 (SCC-25, SCC-25, Head and Neck) was > 30 µM, the GI50 (SCC-25, SCC-25, Head and Neck) was > 30 µM and the IC50 (SCC-25, SCC-25, Head and Neck) was > 30 µM. It also gave an EC50 (SCaBER, Bladder) of 11.5 µM and a GI50 (SCaBER, Bladder) of 11.4 µM.
